# In ChEMBL document CHEMBL1201862, “PubChem BioAssay data set” (2004):
# Active and inactive are the calls of the source.
# Columns and labels:
# [1] = target: Induced myeloid leukemia cell differentiation protein Mcl-1 (Homo sapiens, UniProt Q07820); type: functional
# [2] = target: G-protein coupled receptor 55 (Homo sapiens, UniProt Q9Y2T6); assay: selective activators of receptor GPR55 – imaging, U2OS cells, beta-arrestin-GFP redistribution, primary screen (AID 1961); type: functional
# [3] = target: T1, Replicative DNA helicase DnaB (Mycobacterium tuberculosis, UniProt P9WMR3); assay: DnaB intein splicing inhibitors, dose response, biochemical, cell-free fluorescence (AID 449749); type: functional
# T1 sequence (P9WMR3 whole entry): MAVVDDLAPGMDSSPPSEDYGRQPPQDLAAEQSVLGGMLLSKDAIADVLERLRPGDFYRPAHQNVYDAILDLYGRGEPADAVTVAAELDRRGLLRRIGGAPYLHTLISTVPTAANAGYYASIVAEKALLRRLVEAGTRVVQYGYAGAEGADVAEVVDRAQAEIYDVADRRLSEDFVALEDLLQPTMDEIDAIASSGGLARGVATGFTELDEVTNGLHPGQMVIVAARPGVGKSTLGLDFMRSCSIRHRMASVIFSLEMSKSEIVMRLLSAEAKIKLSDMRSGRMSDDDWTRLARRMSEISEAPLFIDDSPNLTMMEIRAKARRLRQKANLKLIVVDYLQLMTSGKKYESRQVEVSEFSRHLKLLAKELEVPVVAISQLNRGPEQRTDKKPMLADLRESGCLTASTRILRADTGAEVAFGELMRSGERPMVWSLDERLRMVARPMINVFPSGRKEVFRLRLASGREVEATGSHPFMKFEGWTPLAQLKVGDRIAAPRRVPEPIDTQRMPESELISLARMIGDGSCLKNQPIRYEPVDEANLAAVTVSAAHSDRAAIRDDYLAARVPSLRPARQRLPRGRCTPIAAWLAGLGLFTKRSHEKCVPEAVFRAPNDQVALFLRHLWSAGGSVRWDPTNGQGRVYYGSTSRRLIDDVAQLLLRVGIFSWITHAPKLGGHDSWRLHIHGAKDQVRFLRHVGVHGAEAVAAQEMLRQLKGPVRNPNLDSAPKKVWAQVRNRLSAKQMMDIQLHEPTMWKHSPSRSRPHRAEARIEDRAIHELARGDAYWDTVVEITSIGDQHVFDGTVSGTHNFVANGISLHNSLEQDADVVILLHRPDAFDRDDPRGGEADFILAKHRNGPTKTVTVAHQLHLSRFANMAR
# Protein RecA = target: T2, Protein RecA (Mycobacterium tuberculosis, UniProt P9WHJ3); assay: Fluorescence Cell-Free Homogeneous Dose Retest to Identify Inhibitors of RecA-Intein Splicing Activity. [Related pubchem assays (depositor defined):AID2097, AID2223, AID489010, AID492950]; type: functional
# T2 sequence (P9WHJ3 whole entry): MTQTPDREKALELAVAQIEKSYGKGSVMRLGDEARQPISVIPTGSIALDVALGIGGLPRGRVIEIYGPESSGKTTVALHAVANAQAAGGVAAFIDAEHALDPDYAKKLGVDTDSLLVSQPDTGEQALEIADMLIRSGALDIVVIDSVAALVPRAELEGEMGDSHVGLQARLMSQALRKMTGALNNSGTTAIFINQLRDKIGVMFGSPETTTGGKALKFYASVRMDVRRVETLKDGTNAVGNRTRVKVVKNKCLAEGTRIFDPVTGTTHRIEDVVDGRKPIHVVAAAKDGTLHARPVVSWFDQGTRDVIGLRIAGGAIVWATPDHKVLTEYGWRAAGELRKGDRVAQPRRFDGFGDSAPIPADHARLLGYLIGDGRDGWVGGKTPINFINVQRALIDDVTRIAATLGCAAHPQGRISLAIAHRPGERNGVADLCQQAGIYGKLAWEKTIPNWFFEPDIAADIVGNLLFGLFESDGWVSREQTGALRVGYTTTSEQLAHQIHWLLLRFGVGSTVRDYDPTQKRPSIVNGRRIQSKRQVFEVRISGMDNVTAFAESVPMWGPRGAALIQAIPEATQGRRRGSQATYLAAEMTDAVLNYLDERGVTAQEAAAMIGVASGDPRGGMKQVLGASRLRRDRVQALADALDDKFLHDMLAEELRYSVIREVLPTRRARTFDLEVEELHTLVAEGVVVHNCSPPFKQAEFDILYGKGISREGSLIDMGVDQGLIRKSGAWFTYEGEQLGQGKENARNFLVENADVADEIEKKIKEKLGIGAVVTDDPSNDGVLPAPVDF
# [4] = HEK-293T cell viability reduction – luminescence, B-cell screen hits, cytotoxicity control for BCR NF-kB inhibitor project, dose response (AID 489021); type: functional, cell-based;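 further: HEK-293T cells carrying an NF-kB luciferase reporter; cells exposed to compound for about 14 hours before viability readout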
# [5] = target: Glyceraldehyde-3-phosphate dehydrogenase (Homo sapiens, UniProt P04406)
# [6] = target: T3, Alkaline phosphatase, tissue-nonspecific isozyme (Homo sapiens, UniProt P05186); assay: potency against alkaline phosphatase TNAP – biochemical, luminescent, dose response, SAR follow-up (AID 1056)
# T3 sequence (P05186 whole entry): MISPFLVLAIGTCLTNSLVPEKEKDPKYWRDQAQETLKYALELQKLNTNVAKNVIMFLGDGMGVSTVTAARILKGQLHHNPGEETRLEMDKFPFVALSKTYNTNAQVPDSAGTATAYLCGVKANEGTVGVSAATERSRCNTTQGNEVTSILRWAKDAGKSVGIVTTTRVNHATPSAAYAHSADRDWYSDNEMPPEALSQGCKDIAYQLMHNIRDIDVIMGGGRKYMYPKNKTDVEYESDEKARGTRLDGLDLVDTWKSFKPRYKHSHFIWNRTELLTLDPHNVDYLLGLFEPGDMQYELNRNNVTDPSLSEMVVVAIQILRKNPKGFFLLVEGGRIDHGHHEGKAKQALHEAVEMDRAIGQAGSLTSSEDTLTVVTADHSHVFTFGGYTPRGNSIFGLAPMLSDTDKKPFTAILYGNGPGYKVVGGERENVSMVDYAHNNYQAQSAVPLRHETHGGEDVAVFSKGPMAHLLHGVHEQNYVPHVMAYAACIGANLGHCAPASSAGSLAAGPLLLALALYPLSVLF
# [7] = target: Neurotensin receptor type 1 (Homo sapiens, UniProt P30989); type: functional;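 further: Image-based confirmatory dose-response assay measuring agonist activity at NTR1; NTR1-expressing U2OS osteosarcoma cells imaged for beta-arrestin GFP spot formation; agonist potency where compounds increase beta-arrestin recruitment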
# [8] = viability of HCT116 lacking mutant beta-catenin – cell-based, human colon tumor, dose response (AID 1045); type: functional;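 further: HCT116 colon tumor cells with beta catenin knocked out; cells exposed to compound for 60 hours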
# [9] = viability of PTEN-deleted HCT116 cells – cell-based, HCT116 PTEN knockout, dose response (AID 1047); type: functional;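 further: HCT116 colon tumor cells with PTEN knocked out; cells exposed to compound for 60 hours before readout; potency for loss of cell viability measured by luminescence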
# Bcl-2-like protein 10 = target: T4, Bcl-2-like protein 10 (Homo sapiens, UniProt Q9HD36); assay: Bcl-B/TR3 peptide binding disruption – biochemical, fluorescence polarization, FITC-TR3 peptide, selectivity assay for Bfl-1 inhibitor project, primary screen (AID 748);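 further: fluorescence polarization from a fluorescein-labelled TR3 peptide binding purified Bcl-B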
# T4 sequence (Q9HD36 whole entry): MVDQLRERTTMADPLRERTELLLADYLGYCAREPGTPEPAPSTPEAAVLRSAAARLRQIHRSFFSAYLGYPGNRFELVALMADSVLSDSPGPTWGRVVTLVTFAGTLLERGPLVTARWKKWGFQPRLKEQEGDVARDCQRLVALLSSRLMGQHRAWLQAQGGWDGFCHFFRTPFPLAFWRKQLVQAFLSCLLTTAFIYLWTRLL
# Prothrombin = Prothrombin (Homo sapiens, UniProt P00734); assay: Thrombin 1536 HTS Dose Response Confirmation. [Related pubchem assays: 1046 (Thrombin 1536 HTS; hits were confirmed in this assay)]; type: functional
# [10] = HepG2 cell cytotoxicity, dose response, cytotoxicity control for non-replicating M. tuberculosis project (AID 489018); type: functional; conditions: Mycobacterium tuberculosis
# cells = type: functional
# [11] = THP-1 cell cytotoxicity, dose response, cytotoxicity control for non-replicating M. tuberculosis project (AID 489025); type: functional
# [12] = target: T5, Zinc finger protein mex-5 (Caenorhabditis elegans, UniProt Q9XUB2); assay: potency of MEX-5 RNA-binding blockers – biochemical, C. elegans, fluorescence polarization, dose response (AID 1960)
# T5 sequence (Q9XUB2 whole entry): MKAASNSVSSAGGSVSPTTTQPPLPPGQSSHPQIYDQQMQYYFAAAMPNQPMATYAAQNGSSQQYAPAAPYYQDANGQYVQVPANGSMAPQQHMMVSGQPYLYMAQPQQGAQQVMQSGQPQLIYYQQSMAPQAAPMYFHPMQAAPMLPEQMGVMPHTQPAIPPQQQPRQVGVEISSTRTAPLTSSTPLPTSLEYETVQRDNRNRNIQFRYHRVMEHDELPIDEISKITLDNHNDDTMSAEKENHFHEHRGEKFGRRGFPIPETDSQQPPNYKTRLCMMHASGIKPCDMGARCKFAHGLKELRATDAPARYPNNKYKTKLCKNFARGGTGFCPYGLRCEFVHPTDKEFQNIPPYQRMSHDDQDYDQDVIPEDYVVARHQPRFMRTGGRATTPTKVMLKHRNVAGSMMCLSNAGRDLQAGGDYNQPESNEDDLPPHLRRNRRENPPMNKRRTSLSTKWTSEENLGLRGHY
# [13] = target: T6, RNA-binding protein pos-1 (Caenorhabditis elegans, UniProt G5EF15); assay: disruptors of C. elegans POS-1 RNA interaction – biochemical, fluorescence polarization, dose response (AID 1964);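 further: purified POS-1 fused to maltose binding protein made in E. coli; potency of compounds blocking POS-1 binding to fluorescent RNA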
# T6 sequence (G5EF15 whole entry): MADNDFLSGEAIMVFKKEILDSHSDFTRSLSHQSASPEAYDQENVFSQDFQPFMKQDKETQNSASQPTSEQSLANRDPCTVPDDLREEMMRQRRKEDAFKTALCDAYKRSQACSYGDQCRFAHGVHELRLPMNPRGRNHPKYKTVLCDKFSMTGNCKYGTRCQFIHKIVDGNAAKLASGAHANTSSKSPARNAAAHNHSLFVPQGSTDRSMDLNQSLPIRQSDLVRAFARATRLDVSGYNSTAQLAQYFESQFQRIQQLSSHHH
# Insulin-degrading enzyme = target: T7, Insulin-degrading enzyme (Homo sapiens, UniProt P14735); assay: Dose Response: Fluorescence polarization-based cell-based high throughput dose response assay for inhibitors of insulin-degrading enzyme (IDE). [Related pubchem assays: 434962 (Primary screen (IDE inhibitors in singlicate)), 449730 (Counterscreen (Cytotoxicity in triplicate)), 435028 (Confirmation (IDE inhibitors in triplicate)), 434984 (Summary …; type: functional
# T7 sequence (P14735 whole entry): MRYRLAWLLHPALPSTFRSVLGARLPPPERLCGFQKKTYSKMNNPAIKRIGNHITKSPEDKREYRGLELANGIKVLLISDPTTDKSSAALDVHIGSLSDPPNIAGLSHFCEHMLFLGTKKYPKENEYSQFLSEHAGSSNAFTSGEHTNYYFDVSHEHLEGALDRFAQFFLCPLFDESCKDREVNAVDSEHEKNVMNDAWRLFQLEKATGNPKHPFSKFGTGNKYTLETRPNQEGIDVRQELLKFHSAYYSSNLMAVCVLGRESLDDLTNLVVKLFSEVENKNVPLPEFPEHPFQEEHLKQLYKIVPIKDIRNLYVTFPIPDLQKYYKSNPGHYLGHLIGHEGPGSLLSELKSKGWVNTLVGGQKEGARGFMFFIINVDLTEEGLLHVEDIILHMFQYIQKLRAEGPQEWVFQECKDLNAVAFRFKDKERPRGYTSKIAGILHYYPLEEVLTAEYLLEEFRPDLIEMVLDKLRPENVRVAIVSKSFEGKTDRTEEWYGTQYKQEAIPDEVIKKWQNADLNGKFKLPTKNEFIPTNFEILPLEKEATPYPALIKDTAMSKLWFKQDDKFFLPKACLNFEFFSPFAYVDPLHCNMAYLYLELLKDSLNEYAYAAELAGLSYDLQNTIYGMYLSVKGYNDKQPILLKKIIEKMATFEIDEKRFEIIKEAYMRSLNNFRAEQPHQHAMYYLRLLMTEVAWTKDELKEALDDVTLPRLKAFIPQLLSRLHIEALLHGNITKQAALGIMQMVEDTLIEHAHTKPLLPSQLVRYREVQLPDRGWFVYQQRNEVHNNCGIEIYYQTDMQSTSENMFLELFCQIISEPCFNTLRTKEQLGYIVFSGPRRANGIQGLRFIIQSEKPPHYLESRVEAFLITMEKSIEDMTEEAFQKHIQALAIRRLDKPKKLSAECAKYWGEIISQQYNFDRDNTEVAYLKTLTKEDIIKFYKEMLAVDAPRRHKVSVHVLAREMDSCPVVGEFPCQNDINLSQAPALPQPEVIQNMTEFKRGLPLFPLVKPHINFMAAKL
# [14] = Counterscreen for IDE inhibitors: Luminescence-based cell-based high throughput dose response assay to identify compounds that are cytotoxic to HEK cells. [Related pubchem assays: 434962 (Primary screen (IDE inhibitors in singlicate)), 449730 (Counterscreen (Cytotoxicity in triplicate)), 435028 (Confirmation (IDE inhibitors in triplicate)) …; type: functional; conditions: HEK293
# Sequence of G-protein coupled receptor 55 (Q9Y2T6 whole entry): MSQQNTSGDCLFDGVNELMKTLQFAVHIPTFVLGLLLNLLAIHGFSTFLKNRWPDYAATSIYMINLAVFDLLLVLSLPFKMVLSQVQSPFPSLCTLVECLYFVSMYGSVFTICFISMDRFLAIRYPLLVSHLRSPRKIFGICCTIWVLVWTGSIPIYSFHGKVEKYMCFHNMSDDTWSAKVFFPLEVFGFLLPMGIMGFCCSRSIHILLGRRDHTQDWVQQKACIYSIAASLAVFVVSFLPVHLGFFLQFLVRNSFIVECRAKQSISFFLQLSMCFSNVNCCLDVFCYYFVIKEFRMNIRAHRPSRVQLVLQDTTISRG
# Sequence of Neurotensin receptor type 1 (P30989 whole entry): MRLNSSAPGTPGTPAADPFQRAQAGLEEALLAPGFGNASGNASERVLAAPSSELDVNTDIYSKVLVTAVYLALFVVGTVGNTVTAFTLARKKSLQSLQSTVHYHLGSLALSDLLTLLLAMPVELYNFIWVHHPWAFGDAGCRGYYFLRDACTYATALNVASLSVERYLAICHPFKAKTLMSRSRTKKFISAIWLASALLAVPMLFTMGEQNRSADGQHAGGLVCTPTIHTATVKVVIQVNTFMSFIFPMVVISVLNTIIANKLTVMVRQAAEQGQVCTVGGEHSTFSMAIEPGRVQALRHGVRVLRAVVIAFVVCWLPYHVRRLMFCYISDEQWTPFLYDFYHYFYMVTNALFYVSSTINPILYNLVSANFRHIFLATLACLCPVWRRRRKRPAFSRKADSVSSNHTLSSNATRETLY
# Sequence of Glyceraldehyde-3-phosphate dehydrogenase (P04406 whole entry): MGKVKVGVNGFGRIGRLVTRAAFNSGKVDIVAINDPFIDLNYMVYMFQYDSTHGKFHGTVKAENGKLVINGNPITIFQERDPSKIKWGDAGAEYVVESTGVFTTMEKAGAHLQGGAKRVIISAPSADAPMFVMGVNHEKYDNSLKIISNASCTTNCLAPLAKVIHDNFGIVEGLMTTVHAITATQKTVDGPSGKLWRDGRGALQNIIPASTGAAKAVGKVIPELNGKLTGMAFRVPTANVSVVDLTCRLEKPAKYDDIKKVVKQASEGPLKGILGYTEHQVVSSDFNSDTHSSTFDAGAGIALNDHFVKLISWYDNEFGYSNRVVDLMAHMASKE
# Sequence of Induced myeloid leukemia cell differentiation protein Mcl-1 (Q07820 whole entry): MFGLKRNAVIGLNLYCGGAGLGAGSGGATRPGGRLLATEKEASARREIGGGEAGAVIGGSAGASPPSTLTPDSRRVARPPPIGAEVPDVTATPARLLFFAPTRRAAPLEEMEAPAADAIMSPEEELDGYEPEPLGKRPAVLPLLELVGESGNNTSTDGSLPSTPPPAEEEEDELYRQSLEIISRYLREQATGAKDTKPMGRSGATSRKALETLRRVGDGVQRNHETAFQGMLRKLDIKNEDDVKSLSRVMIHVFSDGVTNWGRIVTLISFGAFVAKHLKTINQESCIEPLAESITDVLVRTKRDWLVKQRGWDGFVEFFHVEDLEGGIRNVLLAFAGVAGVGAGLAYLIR
smiles,measurement,setting,value
CCN(CC)C(=O)CC(c1cc(OC)c(OC)c(OC)c1)c1c(OC)cc(OC)c2c(-c3ccccc3)cc(=O)oc12 (stereo unspecified),IC50,[1],5.26 µM (active)
same,EC50,[2],1.31 µM (active)
COc1ccc(/C=C2/SC(=S)N(CCCC(=O)Nc3cccc(O)c3)C2=O)cc1,AC50,[3],> 380 µM (inactive)
same,EC50,Protein RecA,> 380 µM (inactive)
same,IC50,[4],55.8 µM (inactive)
COC(=O)c1cc(-c2ccc(F)cc2F)[nH]n1,IC50,[5],> 10 µM (inconclusive)
same,IC50,[6],0.192 µM (active)
CC(=O)Nc1cccc(C(=O)/C=C/c2ccc(Br)cc2)c1,EC50,[7],13.3 µM (active)
same,EC50,[8],3.18 µM (active)
same,EC50,[9],3.77 µM (active)
O=C(O)c1cc(-c2ccc(/C=N/n3cnnc3)o2)ccc1O,IC50,[5],> 100 µM (not active)
Nc1nc(-c2ccco2)nn1C(=O)CCc1ccccc1,IC50,Bcl-2-like protein 10,> 100 µM (inactive)
same,IC50,Prothrombin,0.0191 µM (active)
CCCc1cc(NCCCn2ccnc2)n2nc(C)c(-c3ccccc3)c2n1,CC50,[10],> 20 µM (active)
same,IC50,cells,29.1 µM (active)
same,CC50,[11],36.2 µM (active)
CC1CCN(c2ccc(C(=O)O)cc2N)CC1,IC50,Bcl-2-like protein 10,30.5 µM (active)
CC(C)(C)OC(=O)N1CCC(NC(=O)c2[nH]cnc2C(=O)N[C@@H](Cc2ccccc2)C(=O)OCc2ccccc2)CC1,EC50,[7],32.2 µM (inactive)
COc1ccc(OC)c(C2CC(=O)Nc3cc(OC)c(OC)c(OC)c32)c1 (stereo unspecified),IC50,[4],> 80 µM (inactive)
CCc1cccc(CC)c1-n1c(SCC(=O)N2CCc3ccccc3C2)nnc1-c1cccnc1,EC50,[7],4.16 µM (active)
CCOC(=O)N1CCN(C(=O)c2ccc3c(c2)N(Cc2cc(C)ccc2C)C(=O)c2ccccc2[S+]3[O-])CC1 (stereo unspecified),EC50,[2],4.83 µM (active)
CCN(c1ccc(N/C=C2/C(=O)N(Cc3ccc(OC)cc3)C(=O)c3ccccc32)cc1)C(C)C,EC50,[2],2.01 µM (active)
COc1ccc(-n2c(C)cc(/C=C3\SC(=S)N(Cc4ccco4)C3=O)c2C)cc1,EC50,[12],121 µM (active)
same,EC50,[13],> 300 µM (not active)
same,IC50,Insulin-degrading enzyme,> 55.9 µM (not active)
same,IC50,[14],38 µM (not active)
